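Each compound was tested at five concentrations against cells in 96-well plates for 48 hours. The concentration for 50% growth inhibition is given as GI50.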 The source made the active and inactive calls. Rule as the data show it: active = GI50 up to about 1.1 µM and inactive = higher.
Columns and labels:
Assay in all cases: growth of human tumour cells (NCI), 48 h
786-0 = system: 786-0
CCRF-CEM = system: CCRF-CEM
EKVX = system: EKVX
HL-60 = system: HL-60
K562 = system: K562
KM12 = system: KM12
M14 = system: M14
Malme-3M = system: Malme-3M
NCI-H522 = system: NCI-H522
NCI/ADR-RES = system: NCI/ADR-RES
OVCAR-8 = system: OVCAR-8
PC-3 = system: PC-3
SR = system: SR
T47D = system: T47D
UO-31 = system: UO-31
IGROV-1 = system: IGROV-1
RXF 393 = system: RXF 393
SK-MEL-5 = system: SK-MEL-5
SK-OV-3 = system: SK-OV-3
TK-10 = system: TK-10

Row | SMILES | GI50 (786-0) | GI50 (CCRF-CEM) | GI50 (EKVX) | GI50 (HL-60) | GI50 (K562) | GI50 (KM12) | GI50 (M14) | GI50 (Malme-3M) | GI50 (NCI-H522) | GI50 (NCI/ADR-RES) | GI50 (OVCAR-8) | GI50 (PC-3) | GI50 (SR) | GI50 (T47D) | GI50 (UO-31) | GI50 (IGROV-1) | GI50 (RXF 393) | GI50 (SK-MEL-5) | GI50 (SK-OV-3) | GI50 (TK-10)
1 | O=[N+]([O-])C(=C(N1CCOCC1)N1CCOCC1)/C(Cl)=C(\Cl)Br | 25.4 µM (inactive) | 2.65 µM (inactive) | 17.1 µM (inactive) | 3.86 µM (inactive) | 15.2 µM (inactive) | 31.4 µM (inactive) | 13.4 µM (inactive) | 16.1 µM (inactive) | 2.41 µM (inactive) | 22.2 µM (inactive) | 24.1 µM (inactive) | 35 µM (inactive) | 17.2 µM (inactive) | 15.7 µM (inactive) | 18.4 µM (inactive) |  |  |  |  | 
2 | Clc1cc(Cl)ncn1 | > 100 µM (inactive) | > 100 µM (inactive) |  |  | > 100 µM (inactive) | > 100 µM (inactive) | > 100 µM (inactive) | > 100 µM (inactive) | > 100 µM (inactive) | > 100 µM (inactive) | > 100 µM (inactive) | > 100 µM (inactive) | > 100 µM (inactive) | > 100 µM (inactive) | > 100 µM (inactive) | > 100 µM (inactive) | > 100 µM (inactive) | > 100 µM (inactive) | > 100 µM (inactive) | > 100 µM (inactive)
3 | c1ccc(/N=C2/SC(c3ccccc3)(c3ccccc3)c3ccccc32)cc1 | > 100 µM (inactive) | > 100 µM (inactive) | > 100 µM (inactive) | > 100 µM (inactive) | > 100 µM (inactive) | > 100 µM (inactive) | > 100 µM (inactive) | > 100 µM (inactive) | > 100 µM (inactive) | > 100 µM (inactive) | > 100 µM (inactive) | > 100 µM (inactive) |  | > 100 µM (inactive) | > 100 µM (inactive) | > 100 µM (inactive) | > 100 µM (inactive) | 57.8 µM (inactive) | > 100 µM (inactive) | > 100 µM (inactive)
4 | COC(=O)C(=O)C(C(=O)C(=O)Nc1ccc(Cl)c(Cl)c1)c1nc2ccc(C(=O)c3ccccc3)cc2nc1O (centres undefined) | > 100 µM (inactive) | 46.6 µM (inactive) | 44.9 µM (inactive) | 45 µM (inactive) | < 0.01 µM (active) | 29 µM (inactive) | 67.3 µM (inactive) | 73.8 µM (inactive) | 27.7 µM (inactive) | 33.6 µM (inactive) | 40.6 µM (inactive) | 38.1 µM (inactive) |  | 49 µM (inactive) | 26.4 µM (inactive) | 33.5 µM (inactive) | 38.4 µM (inactive) | > 100 µM (inactive) | 97.3 µM (inactive) | > 100 µM (inactive)
5 | CCN(CC)CCN(C)CCc1ccc(Br)cc1 | 53.7 µM (inactive) | 51.8 µM (inactive) | > 100 µM (inactive) |  | 25.7 µM (inactive) | 51.2 µM (inactive) | 17.2 µM (inactive) | > 100 µM (inactive) | 69.3 µM (inactive) | 79.4 µM (inactive) | > 100 µM (inactive) | 54 µM (inactive) | > 100 µM (inactive) | > 100 µM (inactive) | 83.8 µM (inactive) | > 100 µM (inactive) | 38.5 µM (inactive) | 17.2 µM (inactive) | > 100 µM (inactive) | > 100 µM (inactive)
6 | O=[N+]([O-])c1ccc(/N=N/c2c(O)ccc3cc(S(=O)(=O)O)ccc23)cc1 | > 100 µM (inactive) | > 100 µM (inactive) | > 100 µM (inactive) |  | > 100 µM (inactive) | > 100 µM (inactive) | > 100 µM (inactive) | > 100 µM (inactive) | > 100 µM (inactive) | > 100 µM (inactive) | > 100 µM (inactive) | > 100 µM (inactive) |  | > 100 µM (inactive) | > 100 µM (inactive) | > 100 µM (inactive) | > 100 µM (inactive) | > 100 µM (inactive) | > 100 µM (inactive) | > 100 µM (inactive)
7 | O=C1CC(c2ccccc2)Oc2ccccc21 (centres undefined) [FLAVANONE] | 29.3 µM (inactive) | 24.2 µM (inactive) | 38.9 µM (inactive) | 21.5 µM (inactive) | 12.6 µM (inactive) | 35.7 µM (inactive) | 51.9 µM (inactive) |  |  | 34.9 µM (inactive) | 48.9 µM (inactive) | 38.5 µM (inactive) | 24 µM (inactive) | 35.8 µM (inactive) | 47.6 µM (inactive) | 23.4 µM (inactive) | 36.2 µM (inactive) | 25.1 µM (inactive) | 84.1 µM (inactive) | 76.4 µM (inactive)
8 | Cc1ccc(C)c(/C(=N\N=C(N)N)C2CC2)c1 | 37 µM (inactive) |  | 43.9 µM (inactive) |  | 20.5 µM (inactive) | 39.9 µM (inactive) | 39.6 µM (inactive) | 41.5 µM (inactive) | 28.6 µM (inactive) | 58.1 µM (inactive) | 46.6 µM (inactive) | 48.5 µM (inactive) | 37.6 µM (inactive) | 45.5 µM (inactive) | 59.8 µM (inactive) | 32.7 µM (inactive) | > 100 µM (inactive) | 36.2 µM (inactive) | > 100 µM (inactive) | 34 µM (inactive)
9 | CN1c2ccccc2C2=C(c3ccccc3)CC[C@@H](C(=O)N3C4CC5CC[C@@]4(CS3(=O)=O)C5(C)C)[C@@H]21 (some centres undefined) | > 100 µM (inactive) | > 100 µM (inactive) | > 100 µM (inactive) |  | 10.5 µM (inactive) | > 100 µM (inactive) | > 100 µM (inactive) | > 100 µM (inactive) | 92.3 µM (inactive) | > 100 µM (inactive) | > 100 µM (inactive) | 4.1 µM (inactive) | > 100 µM (inactive) | > 100 µM (inactive) | > 100 µM (inactive) | > 100 µM (inactive) |  | > 100 µM (inactive) | > 100 µM (inactive) | > 100 µM (inactive)
10 | COc1c(F)c(F)c(C(=O)/C=C2\Nc3ccccc3NC2=O)c(F)c1F | 2.32 µM (inactive) | > 10 µM (inactive) | > 10 µM (inactive) | > 10 µM (inactive) | > 10 µM (inactive) | 8.22 µM (inactive) | > 10 µM (inactive) | > 10 µM (inactive) |  |  | 3.79 µM (inactive) | 7.57 µM (inactive) | > 10 µM (inactive) | 4.67 µM (inactive) |  | 7.33 µM (inactive) | 9.51 µM (inactive) | 8.95 µM (inactive) | 4.57 µM (inactive) | > 10 µM (inactive)
11 | COC(=O)Cc1c(-c2[nH]c3ccccc3c2CC(=O)OC)[nH]c2ccccc12 | 33.7 µM (inactive) | > 25.2 µM (inactive) | 39.4 µM (inactive) |  | 27.7 µM (inactive) | 26.3 µM (inactive) | > 52.4 µM (inactive) | > 55.6 µM (inactive) | > 28.6 µM (inactive) | > 57.3 µM (inactive) | 32.2 µM (inactive) | > 49 µM (inactive) | > 55 µM (inactive) | 2.13 µM (inactive) | > 55.3 µM (inactive) | 45.9 µM (inactive) | 30.3 µM (inactive) | > 52.7 µM (inactive) | > 58.1 µM (inactive) | > 53.2 µM (inactive)
12 | COP(=O)(OC)C12CCOCCN1c1ccccc1C2=O (centres undefined) | > 100 µM (inactive) | > 100 µM (inactive) | > 100 µM (inactive) | > 100 µM (inactive) |  | > 100 µM (inactive) | > 100 µM (inactive) | > 100 µM (inactive) | > 100 µM (inactive) | > 100 µM (inactive) | > 100 µM (inactive) | > 100 µM (inactive) |  | > 100 µM (inactive) | > 100 µM (inactive) | > 100 µM (inactive) |  | > 100 µM (inactive) | > 100 µM (inactive) | > 100 µM (inactive)
13 | COc1ccc2c(c1)C(=O)OCCC2 | > 100 µM (inactive) | > 100 µM (inactive) | > 100 µM (inactive) | > 100 µM (inactive) | > 100 µM (inactive) | > 100 µM (inactive) | > 100 µM (inactive) |  | > 100 µM (inactive) | > 100 µM (inactive) | > 100 µM (inactive) | > 100 µM (inactive) |  | > 100 µM (inactive) | 26.7 µM (inactive) | > 100 µM (inactive) | > 100 µM (inactive) | > 100 µM (inactive) | > 100 µM (inactive) | > 100 µM (inactive)
14 | Cc1cc(N)c2cc(NC(=O)Nc3ccc4nc(C)cc(N)c4c3)ccc2n1 | > 100 µM (inactive) | > 100 µM (inactive) | > 100 µM (inactive) |  | > 100 µM (inactive) | > 100 µM (inactive) | > 100 µM (inactive) | > 100 µM (inactive) | > 100 µM (inactive) | > 100 µM (inactive) | > 100 µM (inactive) | > 100 µM (inactive) |  | > 100 µM (inactive) | > 100 µM (inactive) | > 100 µM (inactive) |  | 70.1 µM (inactive) | > 100 µM (inactive) | > 100 µM (inactive)
15 | COC(=O)C1=C(C)N2[C@H](C(=O)O)CS[C@@]2(C)[C@H](C(=O)OC)[C@H]1c1cccc([N+](=O)[O-])c1 | > 100 µM (inactive) | > 100 µM (inactive) | > 100 µM (inactive) |  | > 100 µM (inactive) | > 100 µM (inactive) | > 100 µM (inactive) | > 100 µM (inactive) | > 100 µM (inactive) | > 100 µM (inactive) | > 100 µM (inactive) | > 100 µM (inactive) | > 100 µM (inactive) | > 100 µM (inactive) | > 100 µM (inactive) | > 100 µM (inactive) | > 100 µM (inactive) | > 100 µM (inactive) | > 100 µM (inactive) | > 100 µM (inactive)

Source: ChEMBL document CHEMBL1201862, “PubChem BioAssay data set” (2004)
